From US10532084B2, “Chondrocyte extracellular matrix-derived peptide” (EYEBIO KOREA, priority 2016, dated 2020)

Experiments:
[1] = Tear amount by phenol red-impregnated cotton threads, dry eye model; type: in vivo, NOD.B10.H2b mice
Method: Tear production was measured by a method reported using phenol red-impregnated cotton threads (Zone-Quick, Oasis, Glendora, Calif.) (Villareal A L, Farley W, Pflugfelder S C. Effect of topical ophthalmic epinastine and olopatadine on tear volume in mice. Eye Contact Lens. 2006; 32 (6): 272-276.). […] The measured lachrymal fluid in the millimeter was compared with a standard curve expressed as a cotton thread which was soaked with the expected tear amount of mouse of basic solution ([…] of 0.9% salt and 5 mL of 5 N NaOH) for 20 seconds.
The degree of tear generation was measured by phenol red-impregnated cotton threads.

[2] = tested on: macrophages, TNFα, ICAM-1, IL-1β, IL-6 and MMP-9; conditions: rabbit alkaline burn; 10 days treatment; immunostaining
Method: (§1) The rabbits were randomly divided into an alkaline burn group (n=5) and a peptide treated group (n=5). In the alkaline burn group, normal saline was administered 4 times daily and in the peptide-treated group, Hyp-[…] peptide of 10 mg/mL was administered 4 times daily, and the left eye was used as a control group.
(§2) Tissue sections were cut into 6 μm thickness and used for immunohistochemical analysis.
(§3) First, tissue sections were fixed with 3.5% paraformaldehyde and permeated with 0.1% Triton X-100, inactivated 2% bovine serum albumin (BSA; all from Sigma, St. Louis, Mo.) and incubated overnight at 4° C. with anti-CD31(1:1,000; Abcam Inc., Cambridge, Mass.), anti-bFGF(1:1,000; Bioss Inc., Woburn, Mass.), anti-IL-1β, anti-IL-6(1:1,000; Cloud-Clone Corp., Houston, Tex.), anti-MMP-9, anti-ICMA-1, anti-TNFα, anti-macrophage/mononucleus (1:1,000; Abnova Crop., Taipei, Taiwan) and anti-VEGF-A (Abbiotec, San Diego, Calif.) primary antibody.
(§4) Thereafter, the secondary antibody was incubated for 45 minutes in the section and the immunological response was visualized with diaminobenzidine (DAB) chromogen, and the section was contrast-stained with Mayer's hematoxylin (Sigma) for 30 seconds at room temperature.
(§5) The dyed sections were photographed by a virtual microscope (NanoZoomer 2.0 RS, Hamamatsu, Japan).

[3] = tested on: CD31, FGF and VEGF; conditions: rabbit alkaline burn; 10 days treatment; immunostaining
Method: as §1, §2, §3, §4, §5

[4] = tested on: corneal surface; assay: Corneal surface irregularity (smoothness) score, dry eye model; type: in vivo, NOD.B10.H2b mice
Method: NOD.B10.H2^b mice were purchased from Jackson Laboratory (Bar Harbor, Me., USA). Animal experiments were carried out in accordance with the guidelines approved by the University of Inje (No.; 2014-029) and ARVO regarding animal use for eye and vision research. NOD.B10.H2^b mice at 12-16 weeks old were exposed to 40-50% ambient humidity and ventilation using a fan for 18 hours a day as dry stress and subcutaneously injected with 0.5 mg/0.2 mL muscarinic receptor blocker. In addition, scopolamine hydrobromide (Sigma-Aldrich, St. Louis, Mo.) was injected alternately to the […] hips four times a day for 10 days at 9 am, […].
After 10 days of ocular dry stress, the scopolamine injection was stopped, and switched to a normal humidity and temperature environment and the dry stress was removed, 10 mg/ml Hyp-[…] and collagen were dissolved in normal saline to administer 5 μL each 5 times a day for 10 days, and normal saline and 0.1% HA were administered to the eyeball 5 times a day for 10 days. Three mice were used in each of the six experimental groups using both eyes of the mice and all experiments were repeated.
As for the curvature of the corneal surface, a reflected image of the white ring was obtained from an optical fiber ring illumination of a stereoscopic microscope (SZX7; Olympus) after anesthetizing the animal. Corneal smoothness was assessed by grading the irregularity of corneal epithelial cells reflected in the white ring of the digital image. Corneal irregularity severity score was calculated by dividing the reflection ring into quadrants and grading into 5 grades according to degree of irregularity. No irregularity is grade 0, irregularity of ¼ (quarter) is grade 1; irregularity of 2/4 (two-quarters) is grade 2; irregularity of ¾ (three-quarters) is grade 3; entire irregularity is grade 4; and […] and thus all the rings were confirmed.
The degree of corneal curvature in each experiment group was quantified to confirm the bendability of the corneal surface.

hydroxy proline-GQDGLAGPK [Hyp-GQDGLAGPK]
tear amount increase vs DS 10D group ([1]; 10 days after treatment): 7.9 times | tear amount relative to CsA treatment group ([1]; 10 days after treatment): 1.7 times | tear amount relative to DQS treatment group ([1]; 10 days after treatment): 1.4 times | tear amount relative to HA treatment group ([1]; 10 days after treatment): 1.6 times | tear amount relative to collagen positive control group ([1]; 10 days after treatment): about 1.7 times | tear amount relative to normal saline negative control group ([1]; 10 days after treatment): about 2.8 times | tear amount ([1]; 10 days of treatment after removal of dry stress, normal 0.22±0.01, DS 10D 0.03±0.01): 0.23 ± 0.02 µL | expression of MMP-9 in the cornea [2]: inhibited | expression of inflammatory factors TNFα, IL-1β, IL-6 and ICAM-1 [2]: decreased | expression of macrophages in the cornea [2]: effectively inhibited | expression of CD31, FGF and VEGF in epithelium, subepithelium and matrix [3]: significant decreases | decrease of corneal surface curvature score vs CsA group ([4]; day 10): 40% | decrease of corneal surface curvature score vs DQS group ([4]; day 10): 33.3% | decrease of corneal surface curvature score vs HA group ([4]; day 10): 33.3% | decrease of corneal surface curvature score vs collagen group ([4]; day 10): 45.5% | decrease of corneal surface curvature score vs normal saline group ([4]; day 10): 40% | decrease of corneal surface curvature score vs dry stress (DS 10D) ([4]; day 10 after removal of dry stress): 53.8% | degree of curvature (irregularity score) of the corneal surface ([4]; day 10 after removal of dry stress, grades 0-5, normal 0.33±0.58, DS 10D 4.33±0.58): 2.0±0 points
